Measured values: ChEMBL document CHEMBL2074312, “Involvement of multispecific organic anion transporter, Oatp14 (Slc21a14), in the transport of thyroxine across the blood-brain barrier” (Endocrinology, 2004)

Target: Solute carrier organic anion transporter family member 1C1
Assay: TP_TRANSPORTER: inhibition of L-T4 uptake in Oatp14-expressing HEK293 cells
Assay type: functional, cell-based

SMILES | Ki
N[C@@H](Cc1cc(I)c(Oc2ccc(O)c(I)c2)c(I)c1)C(=O)O [LIOTHYRONINE] | 24.2 µM
N[C@@H](Cc1ccc(Oc2cc(I)c(O)c(I)c2)c(I)c1)C(=O)O [REVERSE TRIIODOTHYRONINE] | 0.91 µM
N[C@H](Cc1cc(I)c(Oc2cc(I)c(O)c(I)c2)c(I)c1)C(=O)O [DEXTROTHYROXINE] | 0.27 µM
C[C@]12CC[C@@H]3c4ccc(O)cc4CC[C@H]3[C@@H]1CC[C@@H]2O[C@@H]1O[C@H](C(=O)O)[C@@H](O)[C@H](O)[C@H]1O [ESTRADIOL 17B GLUCURONIDE] | > 100 µM
C[C@]12CC[C@@H]3c4ccc(OS(=O)(=O)O)cc4CC[C@H]3[C@@H]1CCC2=O [ESTRONE SULFURIC ACID] | 53.1 µM
CCCN(CCC)S(=O)(=O)c1ccc(C(=O)O)cc1 [PROBENECID] | 293 µM
O=C(O)Cc1cc(I)c(Oc2ccc(O)c(I)c2)c(I)c1 [TIRATRICOL] | 2.15 µM
